# Data from ChEMBL document CHEMBL1201862, “PubChem BioAssay data set” (2004).
#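 Following 48 hours of exposure in 96-well plates, responses at five concentrations were used to interpolate endpoints linearly. Here, GI50 denotes the concentration required for 50% inhibition of growth.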 Calls of active or inactive are those of the source. No stated cut-off is given here; in the data, active = GI50 up to about 1.1 µM and inactive = higher.
# Key:
# Assay in all cases: NCI anticancer screen, dose series, 48 h
# HOP-62 = system: HOP-62
# MOLT-4 = system: MOLT-4
# KM12 = system: KM12
# RXF 393 = system: RXF 393
# U-251 = system: U-251
# SNB-75 = system: SNB-75
# K562 = system: K562
# CCRF-CEM = system: CCRF-CEM
# SK-MEL-2 = system: SK-MEL-2
# SNB-19 = system: SNB-19
# HCT-15 = system: HCT-15
# NCI-H23 = system: NCI-H23
# EKVX = system: EKVX
# ACHN = system: ACHN
# NCI-H226 = system: NCI-H226
# NCI-H522 = system: NCI-H522
# HOP-92 = system: HOP-92
SMILES,GI50 (HOP-62),GI50 (MOLT-4),GI50 (KM12),GI50 (RXF 393),GI50 (U-251),GI50 (SNB-75),GI50 (K562),GI50 (CCRF-CEM),GI50 (SK-MEL-2),GI50 (SNB-19),GI50 (HCT-15),GI50 (NCI-H23),GI50 (EKVX),GI50 (ACHN),GI50 (NCI-H226),GI50 (NCI-H522),GI50 (HOP-92)
O=C(O)CCSC(=O)Nc1cccc([N+](=O)[O-])c1,> 100 µM (inactive),43.7 µM (inactive),> 100 µM (inactive),> 100 µM (inactive),> 100 µM (inactive),> 100 µM (inactive),> 100 µM (inactive),> 100 µM (inactive),> 100 µM (inactive),> 100 µM (inactive),44.2 µM,> 100 µM (inactive),> 100 µM (inactive),52.7 µM (inactive),,,
CCOc1ccc([Se][Se]c2ccc(OCC)cc2)cc1,,,> 100 µM (inactive),35.5 µM (inactive),26.9 µM (inactive),96.4 µM (inactive),,,> 100 µM (inactive),> 100 µM (inactive),82.4 µM,11.5 µM (inactive),> 100 µM (inactive),,44.2 µM (inactive),46 µM (inactive),
COC(=O)C(CCCCCCCC(C(=O)OC)C1=Nc2nnc(N)n2C1=O)C1=Nc2nnc(N)n2C1=O (centres undefined),> 100 µM (inactive),> 100 µM (inactive),> 100 µM (inactive),55.8 µM (inactive),> 100 µM (inactive),48.3 µM (inactive),,> 100 µM (inactive),> 100 µM (inactive),> 100 µM (inactive),> 100 µM,> 100 µM (inactive),> 100 µM (inactive),> 100 µM (inactive),> 100 µM (inactive),> 100 µM (inactive),65.8 µM (inactive)
CCOC(=O)C(NC(=O)c1nc[nH]c1[N+](=O)[O-])C(C)C (centres undefined),> 100 µM (inactive),72.4 µM (inactive),> 100 µM (inactive),,34.5 µM (inactive),> 100 µM (inactive),> 100 µM (inactive),47.2 µM (inactive),> 100 µM (inactive),> 100 µM (inactive),> 100 µM,31.3 µM (inactive),94 µM (inactive),> 100 µM (inactive),30.8 µM (inactive),> 100 µM (inactive),
CCOC(=O)C1Sc2ccccc2N=C1C (centres undefined),> 100 µM (inactive),> 100 µM (inactive),> 100 µM (inactive),> 100 µM (inactive),> 100 µM (inactive),> 100 µM (inactive),> 100 µM (inactive),,> 100 µM (inactive),> 100 µM (inactive),> 100 µM,> 100 µM (inactive),> 100 µM (inactive),> 100 µM (inactive),> 100 µM (inactive),> 100 µM (inactive),> 100 µM (inactive)
COC(=O)C(=O)C(C(=O)OC)C(=O)C(=O)Nc1cc(Cl)c(C)cc1S(=O)(=O)O (centres undefined),> 100 µM (inactive),> 100 µM (inactive),> 100 µM (inactive),> 100 µM (inactive),> 100 µM (inactive),74.3 µM (inactive),> 100 µM (inactive),> 100 µM (inactive),> 100 µM (inactive),> 100 µM (inactive),> 100 µM,> 100 µM (inactive),> 100 µM (inactive),> 100 µM (inactive),> 100 µM (inactive),> 100 µM (inactive),
COc1cc2c(cc1O)[C@H](C)C(c1ccccc1OC)O2 (some centres undefined),,4.65 µM (inactive),3.87 µM (inactive),10.9 µM (inactive),2.34 µM (inactive),2.49 µM (inactive),2.81 µM (inactive),4.21 µM (inactive),3.05 µM (inactive),3.98 µM (inactive),3.34 µM,6.31 µM (inactive),6.87 µM (inactive),4.34 µM (inactive),22.4 µM (inactive),3.01 µM (inactive),8.2 µM (inactive)
CC(C)C1NC(=O)[C@H](C)OC(=O)[C@@H](C(C)C)NC(=O)[C@@H](C)OC(=O)C(C(C)C)NC(=O)[C@H](C)OC1=O (some centres undefined),> 100 µM (inactive),> 100 µM (inactive),> 88.7 µM (inactive),,> 68.4 µM (inactive),> 100 µM (inactive),> 41.7 µM (inactive),> 100 µM (inactive),> 100 µM (inactive),> 100 µM (inactive),17.5 µM,> 100 µM (inactive),> 100 µM (inactive),> 100 µM (inactive),> 100 µM (inactive),> 100 µM (inactive),> 100 µM (inactive)
O=c1c(O)c(-c2ccc(O)c(O)c2)oc2cc(O)cc(O)c12 [QUERCETIN],46.1 µM (inactive),76.9 µM (inactive),42.9 µM (inactive),55.7 µM (inactive),49.7 µM (inactive),49 µM (inactive),67.8 µM (inactive),30.8 µM (inactive),88.5 µM (inactive),61.2 µM (inactive),36.8 µM,,41.2 µM (inactive),> 100 µM (inactive),,84.3 µM (inactive),
